Data from patent US20090088380A1, “GHRH ANALOGS AND THERAPEUTIC USES THEREOF” (priority 2007, published 2009).
Non-standard residues stand in square brackets, D forms with d. Residues, ends and D or L forms follow the SMILES beside them.

Legend:
[1] = system: GH and IGF-1 secretion; assay: Phase I/II study in healthy male volunteers: GH and IGF-1 secretion; type: in vivo, human
Text: The primary objectives of the Phase I/II study were to assess safety and tolerability of escalating doses of the GHRH(1-29)NH2 synthetic analog (Maximal Tolerated Dose—MTD) and to determine the minimal effective dose (MED) of the GHRH(1-29)NH2 synthetic analog in terms of stimulation of GH and IGF-1 secretion. The secondary objectives were to establish the lowest dose of the GHRH(1-29)NH2 synthetic analog that induces maximal response with a single subcutaneous administration into healthy male volunteers, to determine the MED for subsequent studies and to establish the most representative blood sampling time for evaluation of GH secretion profile after GHRH(1-29)NH2 synthetic analog administration to be used in subsequent studies.
It was a crossover single-blinded Phase I/II trial of escalating doses of the GHRH(1-29)NH2 synthetic analog controlled versus placebo. Ten healthy middle-aged male volunteers, between 50 and 55 years old, were recruited. All 10 subjects received a single subcutaneous dose of the GHRH(1-29)NH2 synthetic analog (reconstituted in water for injection), per day for 5 days, in a dose range from 5 to 25 μg/kg of body weight (lower than the maximal dose used to treat GH deficiency in children, which was 30 μg/kg of body weight).
Each volunteer was hospitalized for 6 days. All volunteers were randomized into 5 groups (2 volunteers per group). During the first 24 hours of hospitalization (Day 0), scheduled blood samples were obtained for GH and IGF-1 assessment (GH and IGF-1 baseline sampling) and then from Day 1 until Day 5, following each GHRH(1-29)NH2 synthetic analog or placebo dose administration, according to the established randomization plan.
Once the volunteers were considered eligible, they were hospitalized for a period of 5 consecutive days. On Day 0 of admission successive samples of blood were taken to perform the basal secretion profile of GH during 24 hours. During 5-day hospitalization period, after the initial blood sampling to determine fasting glucose level, the appropriate dose of the GHRH(1-29)NH2 synthetic analog or placebo was administered and multiple samplings were performed to assess the profile of GH, postprandial glucose level and electrocardiogram after 60 minutes of the application of the GHRH(1-29)NH2 synthetic analog/placebo. Eight hours after drug administration, samples were obtained to determine IGF-1 level, thyroid hormones and routine analysis. After 30 days of admission, all the volunteers returned for new clinical evaluation to record any adverse events that could have occurred from the last day of hospitalization period and to take a blood sample for later determination of anti-GHRH(1-29)NH2 synthetic analog antibodies.
Serum human GH was measured by using a commercial DSL-1900 ACTIVE® Human Growth Hormone Coated-Tube Immunoradiometric Assay Kit purchased from Diagnostic Systems Laboratories, Inc., Texas, USA. Serum IGF-1 was measured using DSL-9400 ACTIVE® Free Insulin-Like Growth Factor-I Coated-Tube IRMA Kit purchased from Diagnostic Systems Laboratories.
To determine MED, GH secretion curves were drawn and the area under the curve (AUC) calculated for each study drug dose.

[2] = system: Sprague-Dawley rats; conditions: rat, in vivo
Method: In order to assess such use of the GHRH analogs, the following experiments were undertaken. More specially, the goal was to assess the pharmacodynamic and pharmacokinetic profiles and acute toxicity of GHRH analog #5 when administered once by subcutaneous or intravenous injection to female Sprague-Dawley rats followed by a 14-day observation period and the pharmacodynamic profile in a male Beagle dog when the GHRH analog was administered at escalating doses to the same dog by subcutaneous injection with at least 2-day washout period. The above GHRH analog is a variation of a synthetic acetate salt of an amidated synthetic 29-amino acid peptide that corresponds to the amino-terminal segment of the naturally-occurring human growth hormone—releasing hormone (GHRH) with four amino acid substitutions in positions 2, 10, 15, and 22.
Human GHRH analog #5 in 0.9% sodium chloride for injection USP was administered once either by intravenous (IV) or subcutaneous (SC) injection to female rats followed by a 14-day observation period, as shown in Table 2. Prior to administration, all dosing formulations were filtered using a 0.22 μm filter to ensure sterility. The actual amount of GHRH analog #5 administered was calculated and adjusted based on the animal's most recent body weight. Dosing started at approximately the same time each day, commencing at 9:00 am ±30 minutes.

[3] = system: malnourished subjects with CKD; assay: Phase II CKD: abnormal and clinically significant clinical chemistry and blood gas values; type: in vivo, human; conditions: for Subjects with abnormal and clinically significant ALT (%) / Subjects with abnormal and clinically significant AST (%) / Subjects with abnormal and clinically significant Calcium (%) / Subjects with abnormal and clinically significant Chloride (%) / Subjects with abnormal and clinically significant Creatinine (%) / Subjects with abnormal and clinically significant GGT (%) / Subjects with abnormal and clinically significant Phosphate (%) / Subjects with abnormal and clinically significant Potassium (%) / Subjects with abnormal and clinically significant Sodium (%) / Subjects with abnormal and clinically significant Urea (%): safety analysis set
Text: The number of subjects with abnormal and clinically significant laboratory values at baseline and at Day 28 is presented in Table 35 (haematology) and Table 36 clinical chemistry. Overall, the number of subjects with abnormal and clinically significant laboratory values was similar in the GHRH(1-29)NH2 synthetic analog and placebo groups. No clear trends were observed.

CC[C@H](C)[C@H](NC(=O)[C@H](C)NC(=O)[C@H](CC(=O)O)NC(=O)[C@@H](C)NC(=O)[C@@H](N)Cc1ccc(O)cc1)C(=O)N[C@@H](Cc1ccccc1)C(=O)N[C@H](C(=O)N[C@@H](CC(N)=O)C(=O)N[C@@H](CO)C(=O)N[C@H](Cc1ccc(O)cc1)C(=O)N[C@@H](CCCNC(=N)N)C(=O)N[C@@H](CCCCN)C(=O)N[C@H](C(=O)N[C@@H](CC(C)C)C(=O)N[C@H](C)C(=O)N[C@@H](CCC(N)=O)C(=O)N[C@@H](CC(C)C)C(=O)N[C@@H](CO)C(=O)N[C@@H](C)C(=O)N[C@@H](CCCNC(=N)N)C(=O)N[C@@H](CCCCN)C(=O)N[C@@H](CCCCN)C(=O)N[C@@H](CC(C)C)C(=O)N[C@@H](CCC(N)=O)C(=O)N[C@@H](CC(=O)O)C(=O)N[C@H](C(=O)N[C@@H](CCSC)C(=O)N[C@@H](CO)C(=O)N[C@@H](CCCNC(=N)N)C(N)=O)[C@@H](C)CC)C(C)C)[C@@H](C)O [GHRH analog #5, [D-Ala^2, D-Tyr^10, D-Ala^15, Lys^22] hGHRH(1-29)-NH2] (H-Y[dA]DAIFTNS[dY]RKVL[dA]QLSARKKLQDIMSR-NH2)
AUC of GH level in the first 12 hours ([1]; 5 μg/kg body weight): 61.76 | AUC of GH level in the first 12 hours ([1]; 10 μg/kg body weight): 71.25 | AUC of GH level in the first 12 hours ([1]; 15 μg/kg body weight): 135.17 | AUC of GH level in the first 12 hours ([1]; 25 μg/kg body weight): 149.48 | IGF-1 mean level ([1]; Day 1 of treatment): 156 ng/mL | IGF-1 mean level ([1]; Day 5 of treatment): 231 ng/mL | GH levels compared to placebo ([1]; any dose): unequivocally higher at any dose | Treatment-related clinical signs [2]: No treatment-related clinical signs were observed | Subjects with abnormal and clinically significant ALT (%) ([3]; Baseline): (0.0%) | Subjects with abnormal and clinically significant AST (%) ([3]; Baseline): (0.0%) | Subjects with abnormal and clinically significant Calcium (%) ([3]; Baseline): (0.0%) | Subjects with abnormal and clinically significant Chloride (%) ([3]; Baseline): (0.0%) | Subjects with abnormal and clinically significant Creatinine (%) ([3]; Baseline): (100.0%) | Subjects with abnormal and clinically significant GGT (%) ([3]; Baseline): (0.0%) | Subjects with abnormal and clinically significant Phosphate (%) ([3]; Baseline): (7.7%) | Subjects with abnormal and clinically significant Potassium (%) ([3]; Baseline): (30.8%) | Subjects with abnormal and clinically significant Sodium (%) ([3]; Baseline): (0.0%) | Subjects with abnormal and clinically significant Urea (%) ([3]; Baseline): (100.0%) | Number of subjects with abnormal and clinically significant bicarbonate ([3]; Day 28): 3 subjects | Number of subjects with abnormal and clinically significant calcium ([3]; Day 28): 3 subjects | Subjects with abnormal and clinically significant ALT (%) ([3]; Day 28): (8.3%) | Subjects with abnormal and clinically significant AST (%) ([3]; Day 28): (8.3%) | Subjects with abnormal and clinically significant Calcium (%) ([3]; Day 28): (25.0%) | Subjects with abnormal and clinically significant Chloride (%) ([3]; Day 28): (0.0%) | Subjects with abnormal and clinically significant Creatinine (%) ([3]; Day 28): (100.0%) | Subjects with abnormal and clinically significant GGT (%) ([3]; Day 28): (8.3%) | Subjects with abnormal and clinically significant Phosphate (%) ([3]; Day 28): (16.7%) | Subjects with abnormal and clinically significant Potassium (%) ([3]; Day 28): (25.0%) | Subjects with abnormal and clinically significant Sodium (%) ([3]; Day 28): (0.0%) | Subjects with abnormal and clinically significant Urea (%) ([3]; Day 28): (100.0%) | Number of subjects with abnormal and clinically significant bicarbonate ([3]; baseline): 2 subjects | Number of subjects with abnormal and clinically significant calcium ([3]; baseline): none
